Experimental data from patent US11014896B2, “TRPA1 and TRPV4 inhibitors and methods of using the same for organ-specific inflammation and itch” (Duke University, priority 2014, dated 2021).
Entries after “also recorded” stand apart in the source; their conditions may differ. Where a SMILES comes first, the peptide text is derived from it. [ ]: non-standard residue; d: D form.

How the values were obtained:
[1] = tested on: primary mouse keratinocytes (1° MK); test: UVB-evoked Ca++ signaling in primary mouse keratinocytes (fluo-4 imaging); type: cell-based; conditions: for ET1-augmented, UVB-induced Ca++ transients: UVB and ET1 co-exposure; for UVB-evoked Ca++ signaling (ΔF/F0): GSK205 20 μM
Method: Ca++ imaging of 1° MK was conducted following routine procedures. For UVB stimulation, a customized device was built. The system comprised a printed circuit board for electrical interconnects and mechanical support and an ultraviolet light-emitting diode (UV LED).
The operating wavelength was 295 nm (FIG. 2A), with a full-width half-max of 12 nm. The optical power was 500 mW. The focal point was aimed at the plane of the upper surface of the quartz coverslip, which was used to minimize UV absorption along the optical path towards the cells (FIG. 2A-FIG. 2C). The optical intensity at the focal point was estimated to be 150 mW/mm^2.
Ca++ imaging of mouse 1° MK in response to chemical activation of TRPV4 was conducted after loading with 2 μM fura2-AM, following a ratiometric Ca2+ imaging protocol with 340/380 nm […] for dual excitation. Ratios of emissions were acquired at 0.5 Hz. ΔR/R0 was determined as the fraction of the increase of a given ratio over baseline ratio, divided by baseline ratio. For stimulation of cells with UVB, where fura-2 was not suitable because of the proximity of stimulation with 340/380 nm and 295 nm, 2 μM fluo4-AM was used instead. Ca++ imaging was carried out at 488 nm excitation, acquisition of emissions at 0.5 Hz, expressed as ΔF/F0. In the custom-built UV optical system, UV LEDs were capped with a ball lens, a transparent optical window in the shape of a hemispherical lens (FIG. 2B). The LED output optical beam focused at 15-20 mm from the lens, with a spot diameter of approximately 1.5-2.0 mm (FIG. 2C). […] The thermal equilibration stage was set for physiological temperature.

ET1 [2] = test: ET1 expression by UVB-exposed 1° MK (immunocytochemistry); type: cell-based, mouse; conditions: cells preincubated with inhibitor
Method: 1° MK were exposed to UVB using the UV optical system (295 nm LED). 24 hours later the cells were fixed and fluorescently immunolabeled for ET1. Digital images were captured and subjected to morphometry.
Mouse keratinocytes were cultured on collagen coated quartz coverslips and then stimulated from the bottom using the previously mentioned UV optical system using the 295 nm LED. 24 hours later the cells were fixed in 4% formaldehyde in PBS for 20 minutes, permeabilized with 0.1% Triton X-100 in PBS for 10 minutes, washed, then blocked in 10% normal goat serum in PBS for 45 minutes. Coverslips were incubated overnight with primary antibody mouse anti-ET1 (1:200; Abcam), washed three times in PBS and incubated with secondary antibody for 2 hours at 25° C. Coverslips were washed three times in PBS, once with double-distilled H2O. Digital images were captured using a 40× immersion lens on the BX61 Olympus upright microscope. Morphometric analysis was conducted using ImageJ freeware with tailored regions-of-interest.

ET1 [3] = test: ET1 secretion by non-stimulated 1° MK (ELISA); type: cell-based, mouse
human TRPV1 = target: T1, human TRPV1 (Homo sapiens, UniProt Q8NER1); test: Ca2+ signal in N2a cells transfected with human TRPV1; type: cell-based; conditions: stimulation with 5 μM capsaicin
T1 construct: expressed in transfected cells; host or cells: N2a cells
Method: (§1) Compounds were tested for their effect on TRPV1, TRPV2, and TRPV3. Methods were similar to those described in Example 15. Briefly, N2a cells were transfected with human TRPV1, TRPV2, or TRPV3. eGFP-transfection was used as control. For specific stimulation of TRPV1, 5 μM capsaicin was used. For stimulation of TRPV2, hypotonicity (260 mosmol/L) was used, based on previous reports of TRPV2 being osmotically responsive. N2a cells were not responsive to hypotonicity, and neither were control-transfected cells. For TRPV3-expressing cells, camphor (20% of a commercially available stock solution) was used. […] Stimulation and control protocols were applied as for TRPA1-expressing N2a cells as detailed above in Example 15.

human TRPV3 = target: T2, human TRPV3 (Homo sapiens, UniProt Q8NET8); test: Ca2+ signal in N2a cells transfected with human TRPV3; type: cell-based; conditions: stimulation with camphor
T2 construct: expressed in transfected cells; host or cells: N2a cells
T2 sequence (Q8NET8 1-790): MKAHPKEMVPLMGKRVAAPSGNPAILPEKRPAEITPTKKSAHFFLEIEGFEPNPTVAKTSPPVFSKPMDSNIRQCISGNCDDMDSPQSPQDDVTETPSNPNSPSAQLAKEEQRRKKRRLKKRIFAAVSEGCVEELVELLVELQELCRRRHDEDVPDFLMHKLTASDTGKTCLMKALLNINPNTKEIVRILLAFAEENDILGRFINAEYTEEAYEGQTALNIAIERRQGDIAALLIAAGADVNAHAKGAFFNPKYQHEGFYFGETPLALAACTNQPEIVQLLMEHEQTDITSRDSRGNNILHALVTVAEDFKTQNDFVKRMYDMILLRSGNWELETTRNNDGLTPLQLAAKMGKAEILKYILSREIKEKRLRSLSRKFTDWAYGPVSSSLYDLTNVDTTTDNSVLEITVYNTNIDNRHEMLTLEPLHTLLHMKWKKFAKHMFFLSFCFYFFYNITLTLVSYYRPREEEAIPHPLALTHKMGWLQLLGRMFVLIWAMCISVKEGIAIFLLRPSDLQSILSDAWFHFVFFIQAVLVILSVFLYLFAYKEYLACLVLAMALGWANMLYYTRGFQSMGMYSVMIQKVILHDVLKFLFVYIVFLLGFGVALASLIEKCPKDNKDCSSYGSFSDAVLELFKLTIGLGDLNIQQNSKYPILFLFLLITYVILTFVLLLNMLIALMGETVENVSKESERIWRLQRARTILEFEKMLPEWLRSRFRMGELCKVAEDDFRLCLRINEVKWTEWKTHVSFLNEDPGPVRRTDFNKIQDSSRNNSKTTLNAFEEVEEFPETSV
Method: as §1

[4] = Formalin-evoked nocifensive (rubbing) behavior, whisker-pad injection, in vivo pain model in mice; set-up: species or system mouse
Method: Compounds were tested for their effect in reducing pain using an in vivo pain model in mice. For mouse formalin-evoked irritant behavior measurements, mice were well-fed, well-rested, and tested at the same time of day, at the same time-point of their circadian rhythm. They were allowed to acclimate to a plexiglas chamber for at least 30 min before testing, and received 10 μL subcutaneous injection of 4% of formalin (diluted from an aqueous solution of commercial 37% formaldehyde with normal saline (NS)) through a 30-gauge needle into the right whiskerpad, as further detailed in Luccarini et al. (J. Pain, 2006, 7, 908-914). Normal saline was used as control injection. After injection, mice were immediately placed back into the chamber and the rubbing behavior was recorded by a private consumer-type video-camera for a 45 min observation period. The recording time was divided into 9 blocks of 5 min, and a nociceptive score was determined per block by measuring the time that the animals spent rubbing the injected area predominantly with the ipsilateral fore-paw and rarely with hind-paw. This rubbing behavior with fore-paw is evoked by pain, which is distinct from itch behavior. Behavioral analysis was conducted by observers blinded to treatment.
To investigate the effects of the specific compounds GSK205, 16-8, and 16-8/18hy on formalin-induced nociceptive behavior, mice received a single subcutaneous injection of the compounds into the whiskerpad (10 μL, dissolved in 4% DMSO) 15 min before formalin injection. Control animals received the same volume of NS, 4% DMSO.

human TRPV2 = target: T3, human TRPV2 (Homo sapiens, UniProt Q9Y5S1); test: Ca2+ signal in N2a cells transfected with human TRPV2; type: cell-based; conditions: stimulation with hypotonicity (260 mosmol/L)
T3 construct: expressed in transfected cells; host or cells: N2a cells
T3 sequence (Q9Y5S1 1-764): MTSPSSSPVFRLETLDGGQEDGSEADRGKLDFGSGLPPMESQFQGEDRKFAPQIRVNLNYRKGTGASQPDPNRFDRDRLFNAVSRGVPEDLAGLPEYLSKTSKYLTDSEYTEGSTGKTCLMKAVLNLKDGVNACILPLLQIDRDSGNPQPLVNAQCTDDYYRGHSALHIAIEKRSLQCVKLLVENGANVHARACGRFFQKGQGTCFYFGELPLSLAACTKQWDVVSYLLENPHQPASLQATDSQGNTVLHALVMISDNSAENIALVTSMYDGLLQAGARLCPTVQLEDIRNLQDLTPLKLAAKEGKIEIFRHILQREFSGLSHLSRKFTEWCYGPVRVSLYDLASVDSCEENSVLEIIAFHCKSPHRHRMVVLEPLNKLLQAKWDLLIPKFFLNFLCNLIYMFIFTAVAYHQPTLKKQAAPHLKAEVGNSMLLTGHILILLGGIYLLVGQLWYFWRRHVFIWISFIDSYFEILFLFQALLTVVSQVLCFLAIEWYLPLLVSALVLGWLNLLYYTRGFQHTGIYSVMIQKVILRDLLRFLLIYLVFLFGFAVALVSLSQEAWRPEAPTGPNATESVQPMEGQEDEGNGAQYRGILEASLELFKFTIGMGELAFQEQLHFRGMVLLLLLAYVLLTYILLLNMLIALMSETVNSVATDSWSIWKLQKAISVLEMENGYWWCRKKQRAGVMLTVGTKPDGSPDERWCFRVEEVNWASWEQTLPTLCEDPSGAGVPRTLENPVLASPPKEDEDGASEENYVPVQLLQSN
Method: as §1

human TRPA1 = target: T4, human TRPA1 (Homo sapiens, UniProt O75762); test: Ca2+ transient in N2a cells transfected with human TRPA1; type: cell-based; conditions: 5 μM compound
T4 construct: expressed in transfected cells; host or cells: N2a cells, pcDNA3.1 plasmid, co-transfected with an eGFP plasmid
Method: Compounds were tested for their effect on TRPA1. N2a permanent cells were transfected with human TRPA1 cDNA, using a pcDNA3.1 expression plasmid. They were co-transfected with eGFP-expressing plasmid, or, for control, with eGFP plasmid only.

TRPV4 = TRPV4 (Homo sapiens, UniProt Q9HBA0); test: TRPV4-mediated calcium influx in N2a cells with targeted expression of human TRPV4; type: cell-based; set-up: expressed in transfected cells; host or cells: N2a cells; conditions: 2.5 μM inhibitor, pre-incubation 10 min; TRPV4 activated with 10 nM GSK101
Method: Compounds (GSK205, 16-12, 16-13, 16-14, 16-18, 16-8, and 16-8/18hy) were tested for their effect on TRPV4-mediated calcium influx in N2a cultured cells with targeted expression of human TRPV4. Ca2+ imaging was performed according to Li et al. (Environ. Health Perspect. 2011, 119, 784-93) and Moore et al. (Proc. Natl. Acad. Sci. U.S.A. 2013, 110, E3225-E3234). Briefly, Ca2+ imaging of primary mouse epidermal keratinocytes (1° MK) in response to chemical activation of TRPV4 was conducted after loading with 2 μM fura2-AM, following a ratiometric Ca2+-imaging protocol with 340/380 nm blue light for dual excitation. Ratios of emissions were acquired at 0.5 Hz. ΔR/R0 was determined as the fraction of the increase of a given ratio over baseline ratio, divided by baseline ratio. For stimulation of cells with UVB, where fura-2 was not suitable because of the proximity of stimulation with 340/380 nm vs. 295 nm, 2 μM fluo4-AM was used instead. Ca2+ imaging was carried out at 488 nm excitation, acquisition of emissions at 0.5 Hz, expressed as ΔF/F0. TRPV4 was activated with 10 nM GSK101, a specific activator, which had no effect on RFP-transfected cells. Each of the […] compounds were added to a concentration of 2.5 μM, and its effect was observed.

Sequence of TRPV4 (Q9HBA0 whole entry): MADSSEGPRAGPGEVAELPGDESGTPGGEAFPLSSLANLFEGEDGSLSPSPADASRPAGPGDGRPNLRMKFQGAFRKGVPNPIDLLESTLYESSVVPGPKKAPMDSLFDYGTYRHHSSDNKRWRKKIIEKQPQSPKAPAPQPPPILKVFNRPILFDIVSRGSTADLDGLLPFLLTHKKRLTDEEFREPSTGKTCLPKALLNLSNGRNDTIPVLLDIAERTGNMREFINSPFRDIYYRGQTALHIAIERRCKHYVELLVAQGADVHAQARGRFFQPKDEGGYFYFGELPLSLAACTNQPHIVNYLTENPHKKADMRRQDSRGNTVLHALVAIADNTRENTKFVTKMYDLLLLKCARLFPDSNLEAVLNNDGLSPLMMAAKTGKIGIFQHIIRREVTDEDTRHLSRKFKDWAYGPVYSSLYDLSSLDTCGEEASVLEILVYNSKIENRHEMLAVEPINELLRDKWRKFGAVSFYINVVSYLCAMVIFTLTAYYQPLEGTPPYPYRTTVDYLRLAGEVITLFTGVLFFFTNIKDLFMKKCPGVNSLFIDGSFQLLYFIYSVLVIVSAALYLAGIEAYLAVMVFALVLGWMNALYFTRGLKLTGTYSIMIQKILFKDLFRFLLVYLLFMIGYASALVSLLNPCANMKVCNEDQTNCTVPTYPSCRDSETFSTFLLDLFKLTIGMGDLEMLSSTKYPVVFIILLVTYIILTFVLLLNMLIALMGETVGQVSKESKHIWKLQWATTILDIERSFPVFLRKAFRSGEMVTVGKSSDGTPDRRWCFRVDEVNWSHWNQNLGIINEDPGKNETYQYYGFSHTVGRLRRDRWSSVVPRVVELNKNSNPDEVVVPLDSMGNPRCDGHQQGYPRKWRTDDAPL
T4 sequence (O75762 whole entry): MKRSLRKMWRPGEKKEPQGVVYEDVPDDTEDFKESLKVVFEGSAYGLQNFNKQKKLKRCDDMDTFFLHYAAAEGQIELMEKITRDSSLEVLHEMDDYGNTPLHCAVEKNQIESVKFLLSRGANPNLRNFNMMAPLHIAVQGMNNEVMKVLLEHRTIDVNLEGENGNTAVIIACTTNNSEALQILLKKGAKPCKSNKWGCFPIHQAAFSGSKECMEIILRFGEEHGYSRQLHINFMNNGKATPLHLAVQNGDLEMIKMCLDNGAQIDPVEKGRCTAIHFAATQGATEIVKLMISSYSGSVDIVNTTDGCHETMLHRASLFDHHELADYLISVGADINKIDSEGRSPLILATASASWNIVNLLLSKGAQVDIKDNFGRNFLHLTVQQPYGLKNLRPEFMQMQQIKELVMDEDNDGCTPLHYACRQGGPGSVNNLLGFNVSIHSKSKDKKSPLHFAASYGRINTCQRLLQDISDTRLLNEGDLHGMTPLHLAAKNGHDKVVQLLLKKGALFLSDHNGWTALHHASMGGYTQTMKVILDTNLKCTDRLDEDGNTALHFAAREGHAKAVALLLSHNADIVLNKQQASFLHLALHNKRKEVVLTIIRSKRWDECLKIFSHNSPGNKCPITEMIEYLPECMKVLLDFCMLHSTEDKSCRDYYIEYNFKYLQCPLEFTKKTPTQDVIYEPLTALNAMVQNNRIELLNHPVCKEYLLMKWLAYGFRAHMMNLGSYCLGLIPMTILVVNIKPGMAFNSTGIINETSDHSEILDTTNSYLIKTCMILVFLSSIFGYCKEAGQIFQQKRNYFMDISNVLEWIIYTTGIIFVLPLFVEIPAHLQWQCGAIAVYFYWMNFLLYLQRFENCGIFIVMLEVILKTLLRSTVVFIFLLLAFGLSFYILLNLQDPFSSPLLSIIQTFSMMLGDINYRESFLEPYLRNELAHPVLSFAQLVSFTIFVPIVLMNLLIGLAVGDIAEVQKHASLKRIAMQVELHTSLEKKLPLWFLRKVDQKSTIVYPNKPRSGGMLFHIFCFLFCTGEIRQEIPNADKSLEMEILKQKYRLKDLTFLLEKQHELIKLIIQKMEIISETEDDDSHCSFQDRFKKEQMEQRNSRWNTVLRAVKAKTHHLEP
T1 sequence (Q8NER1 whole entry): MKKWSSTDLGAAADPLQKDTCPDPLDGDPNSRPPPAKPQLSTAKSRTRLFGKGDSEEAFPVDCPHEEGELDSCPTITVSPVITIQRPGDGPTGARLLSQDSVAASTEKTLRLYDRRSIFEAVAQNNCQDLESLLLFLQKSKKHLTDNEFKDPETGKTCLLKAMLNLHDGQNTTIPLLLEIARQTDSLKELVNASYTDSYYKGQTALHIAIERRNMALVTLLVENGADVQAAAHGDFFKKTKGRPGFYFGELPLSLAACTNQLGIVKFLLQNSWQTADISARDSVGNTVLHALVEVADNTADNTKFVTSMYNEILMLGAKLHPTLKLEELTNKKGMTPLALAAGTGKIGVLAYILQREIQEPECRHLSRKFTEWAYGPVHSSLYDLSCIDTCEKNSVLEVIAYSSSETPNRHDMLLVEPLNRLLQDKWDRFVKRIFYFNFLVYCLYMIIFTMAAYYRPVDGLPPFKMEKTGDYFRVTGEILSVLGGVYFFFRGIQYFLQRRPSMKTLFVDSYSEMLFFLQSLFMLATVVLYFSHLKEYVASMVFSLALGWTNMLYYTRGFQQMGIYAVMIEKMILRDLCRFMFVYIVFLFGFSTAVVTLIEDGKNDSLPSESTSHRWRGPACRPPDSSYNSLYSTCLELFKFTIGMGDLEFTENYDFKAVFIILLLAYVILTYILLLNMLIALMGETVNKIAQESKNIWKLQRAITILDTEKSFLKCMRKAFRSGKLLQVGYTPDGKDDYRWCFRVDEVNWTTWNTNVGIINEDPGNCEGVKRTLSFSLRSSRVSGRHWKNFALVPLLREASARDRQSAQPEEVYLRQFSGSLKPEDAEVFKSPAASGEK

CC(C)C[C@@H]1NC(=O)[C@@H](C(C)C)NC(=O)[C@@H]2CCCN2C(=O)[C@@H](CC(=O)O)NC(=O)[C@@H](Cc2c[nH]c3ccccc23)NC1=O [BQ123] (cyclo(L[dW][dD]P[dV]))
ET1-augmented, UVB-induced Ca++ transients [1]: attenuated

CCCC[C@@H](NC(=O)[C@@H](Cc1cn(C(=O)OC)c2ccccc12)NC(=O)[C@H](CC(C)(C)C)NC(=O)N1[C@H](C)CCC[C@@H]1C)C(=O)O [BQ788]
ET1-augmented, UVB-induced Ca++ transients [1]: attenuated

O=C(O)C(Cc1ccc2c(c1)oc1ccccc12)NCP(=O)(O)O (centres unmarked) [CGS35066]
ET1 immunoreactivity (ET1 [2]): significant down-regulation
ET1 secretion into supernatant (relative ET1 concentration) (ET1 [3]): down-regulation
UVB-evoked Ca++ signaling (ΔF/F0) [1]: significantly diminished; also recorded: significant attenuation

CCN(CCc1ccc(Nc2nc(-c3ccccc3)cs2)cc1)Cc1ccccc1 [Compound 16-8/18hy]
Ca2+ transience on TRPV1 stimulation (human TRPV1): not affected
Ca2+ transience on TRPV3 stimulation (human TRPV3): not affected
formalin-induced nocifensive behavior at the 45-min time-point ([4]; 0.5 mM/10 μL, 45-min time-point): reversal to control levels
formalin-induced nocifensive behavior, time course ([4]; 0.5 mM/10 μL, FIG. 21D): significantly attenuated nocifensive behavior
formalin-induced nocifensive behavior, quantitation, in particular second phase ([4]; compounds pre-injected at 0.5 mM/10 μL into whiskerpad 15 min before 4% formalin): significant attenuation of nocifensive behavior
Ca2+ transience on TRPV2 stimulation (human TRPV2): not affected
inhibitory activity against human TRPA1 (human TRPA1): inhibitory activity
inhibition of TRPV4-mediated calcium influx (peak calcium concentration in the cells) (TRPV4): did not show enhanced inhibition over 16-8

CCN(CCc1ccc(Nc2nc(-c3cccnc3)cs2)cc1)Cc1ccccc1 [Compound 16-18]
inhibition of TRPV4-mediated calcium influx (peak calcium concentration in the cells) (TRPV4): most potent

COc1ccc2c(c1)CC[C@@H]1[C@@H]2CC[C@]2(C)[C@@H](NCCCCCCN3C(=O)C=CC3=O)CC[C@@H]12 [Compound U73122]
ET1 immunoreactivity (ET1 [2]): dampened ET1 expression; also recorded: significant down-regulation
ET1 secretion into supernatant (relative ET1 concentration) (ET1 [3]): down-regulation
UVB-evoked Ca++ signaling (ΔF/F0) [1]: virtually eliminated; also recorded: strongly reduced

C=C(C)CCO[P@@](=O)(O)OP(=O)(O)O [IPP, isopentenyl pyrophosphate]
UVB-evoked Ca++ signaling (ΔF/F0) [1]: no effect; also recorded: not inhibited

CC(C)NCCN(C(C)C)S(=O)(=O)c1ccc(Cl)cc1Cl [RN1734]
ET1 immunoreactivity (ET1 [2]): diminished; also recorded: significant down-regulation
ET1 secretion into supernatant (relative ET1 concentration) (ET1 [3]): significant down-regulation
